{
  "source": "patent US8623832B2",
  "about": "“Peptide compositions that bind TLR-4” (The Board of Regents of the University of Oklahoma, priority 2011, dated 2014)",
  "key": {"SW480 cells": {"system": "SW480 cells", "assay": "LPS-stimulated migration of SW480 cells", "type": "cell-based, human", "conditions": "LPS 1.0 μg/ml; SPA4 1, 10 and 50 μM; from 24 hours till 72 hours", "procedure": "Cell migration: SW480 cells were plated in 30 mm tissue-culture-treated dishes at a density of 1.0×10^6 cells per plate. At 80-90% confluence, a “reference line” was drawn at the bottom of the plate. The cells were scratched off from one side of the reference line using a rubber policeman. A picture was taken at 0 t that helped in marking the “start line”. Cells were then washed with complete medium and incubated with LPS (1.0 μg/ml) and/or SPA4 peptide (1, 10 and 50 μM). Photomicrographs of cells migrated across the “start line” were taken in different fields after each treatment at 24, 48, and 72 hours (±2 hours) following traceable inscriptions made under the plate at three different points, with a Canon digital camera. On 24, 48 and 72 hour images, a second line was drawn along the edge of cells to represent the migration of cells. Cell migration was calculated by measuring the distance cells migrated from the “start line”. Only the continuous migration of cells was considered for measurement. The islets of cells were disregarded. The cell migration was calculated using the following formula: (distance between “start line” at 0 h—“reference line”)-(distance between “72 hours line”—“reference line”)."}, "[1]": {"assay": "Binding to LPS by Limulus Amoebocyte Lysate (LAL) assay", "design": "species or system Escherichia coli", "conditions": "0-20 μM peptide; 0.01 ng/ml LPS; read at 6 and 12 minutes", "procedure": "Binding of SPA4 peptide to LPS: The binding of SPA4 peptide to LPS was studied by LAL assay as per the method described by Giacometti et al. (2004). Briefly, 0-20 μM SPA4 peptide or polymyxin B (positive control) solutions were added to 0.01 ng/ml Escherichia coli O111:B4 LPS (supplied with the kit, Charles River Laboratories International, Inc., Wilmington, Mass.) in the wells of a 96 well plate and incubated at 37° C. for 40 minutes. Fifty μl of LAL substrate solution was then added to each well, and the plate was incubated for another 10 minutes. Finally, substrate-buffer solution was added, and optical density readings (OD) were obtained at 405 nm after 0, 6 and 12 minutes of addition of substrate. AOD values for SPA4 peptide or polymyxin B incubated with LPS (ΔODtreatment), LPS alone (ΔODLPS) and blank (ΔODBlank) were calculated by subtracting the OD values obtained at 6 or 12 minutes from those obtained at 0 minutes. Percent binding of SPA4 peptide and polymyxin B was calculated at 6 and 12 minutes of reaction using following formula: […]"}, "NF-κB": {"system": "NF-κB", "assay": "NF-κB luciferase reporter activity in LPS-challenged JAWS II dendritic cells", "type": "cell-based, mouse", "procedure": "At the molecular level, the effects of SPA4 peptide on LPS-induced NF-κB activity were studied in dendritic cells (JAWS II cells) co-transfected with NFκB luciferase reporter plasmid construct and dominant negative construct of MYD88 (an adaptor protein downstream of TLR4; MYD88DN). Briefly, JAWS II dendritic cells (0.5×10^6) were transfected with NF-κB luciferase reporter and/or MYD88DN using TransIT-TKO transfection reagent as described earlier (Awasthi S et al., 2003). After 20-24 hours of incubation, the transfected cells were challenged with LPS (100 ng/ml) for 4 hours and treated with SPA4 peptide (10 μM) for 1 hour. After the completion of 5 hours incubation, the cell lysates were prepared in cell lysis buffer and NF-κB-luciferase reporter activity was measured as per the manufacturer's instructions (Promega, WI)."}, "TLR4": {"system": "TLR4", "assay": "TLR4 expression in SW480 cells by immunocytochemistry / confocal microscopy", "type": "cell-based, human", "conditions": "LPS 4 hours then SPA4 1 hour, more pronounced with 100 μM", "procedure": "Expression of TLR4: Next, the effect of SPA4 peptide on the expression of TLR4 in SW480 cells was investigated by immunocytochemistry and laser confocal microscopy. Briefly, about 2.5×10^4 cells were seeded in an 8-well chamber slide (Thermo Fisher Scientific, Rochester, N.Y.) in complete medium. The cells were treated with E. coli O111:B4-derived, highly-purified, low-protein LPS (100 ng/ml or 1.0 μg/ml; Calbiochem, CA) for 4 hours following 1 hour incubation with SPA4 peptide (1, 10 and 100 μM). The cells were fixed in 3.5% paraformaldehyde in Dulbecco's PBS (DPBS) and permeabilized with 0.05% saponin solution (Inaba et al. 1998). The wells were washed with DPBS supplemented with 1% FBS and 0.05% saponin, and stained with TLR4-specific antibody (1:50 dilution, Abcam, Mass.) and 10 μg/ml Alexa-fluor 488-labeled secondary anti-rabbit IgG antibody (Invitrogen-Molecular Probes, CA). After washing, the cells were stained with 100 nM rhodamin-phallodin (Cytoskeleton Inc, CO) and 1 μg/ml Hoechst 33342 dyes (Invitrogen-Molecular Probes, CA). Confocal microscopic images were acquired at the Imaging core facility of the Oklahoma Medical Research Foundation, Oklahoma City, using the Zeiss LSM-510 META laser scanning confocal microscope. Images were acquired with lens objective of 63× with the x/y stack sizes being 146.2 μm using band pass filter specifications at 435-485, 560-615 and 505-530."}, "[2]": {"system": "primary adult baboon lung DCs and fetal baboon lung DC-precursor cells", "assay": "TNF-α secretion against E. coli by baboon lung DCs (ELISA)", "type": "cell-based", "procedure": "After confirming that the fluorescence is of phagocytosed bioparticles, comprehensive experiments were performed in presence and absence of effector molecules (SP-A and TLR4-MD2 proteins). The cells were pulsed with purified, native baboon lung SP-A and recombinant human TLR4-MD2 or MD2 proteins (RnD Systems, MN) for an hour prior to phagocytosis assay with pHrodo-conjugated, heat-killed E. coli K12 bioparticles (Invitrogen-Molecular Probes, CA). MD2 protein was also included, because SP-A is known to interact with MD2, and it was questioned if MD2 can influence the immune functions of DC-population. The assay was performed in serum-free Opti-MEM medium (Invitrogen, CA), as described by the manufacturer (Invitrogen-Molecular Probes, CA). The assay mixtures were incubated for another 3 hours at 37° C. in 5% CO2 incubator. The fluorescence readings were taken at 550 nm excitation and 600 nm emission wavelengths using SpectraMax M2 spectrofluorometer (Molecular Devices, CA).\nCytokine (TNF-α) measurement: The TNF-α levels were measured in cell-free supernatants by enzyme linked immunosorbent assay (ELISA) using a commercially available kit (eBioscience, CA), as per the manufacturer's instructions. Briefly, the microwells of a 96 well plate were coated with diluted purified anti-human TNF-α antibody. The wells were washed, and nonspecific sites were blocked. Diluted recombinant human TNF-α (7.8-500 pg/ml standard) and cell-free-supernatant (1:10) were added to the antibody-coated wells, and the plate was incubated overnight at 4° C. The next day, the plate was washed and incubated with biotin-conjugated anti-human TNF-α antibody followed by avidin-horseradish peroxidase and substrate solution. The reaction was stopped by adding 2 N H2SO4 and read at 450 nm (Molecular Devices, CA)."}},
  "note": "Where no end group is shown, it is not given here.",
  "data": [
    {"substance": "GDFRYSDGTPVNYTNWYRGE [SPA4, GDFRYSDGT PVNYTNWYRGE]", "values": [
      {"measurement": "LPS-induced migration of SW480 cells", "setting": "SW480 cells", "value": "inhibited"},
      {"measurement": "binding to LPS", "setting": "[1]", "value": "does not bind to LPS"},
      {"measurement": "MYD88-independent NF-κB activity", "setting": "NF-κB; JAWS II co-transfected with MYD88 dominant negative", "value": "does not affect"},
      {"measurement": "LPS-induced NF-κB activity in dendritic cells", "setting": "NF-κB; JAWS II, LPS 100 ng/ml 4 hours, SPA4 10 μM 1 hour", "value": "inhibits"},
      {"measurement": "LPS-stimulated TLR4 expression", "setting": "TLR4", "value": "reduced the LPS-stimulated TLR4 expression to basal level"}
    ]},
    {"substance": "SP-A: native surfactant protein-A purified from bronchioalveolar lavage fluid of a normal healthy adult baboon (MWLCPLALTLTLMAASGAACEVKDVCVGSPGIPGTPGSHGLPGRDGRDGVKGDPGPP; listed as Papio cynocephalus)", "values": [
      {"measurement": "secretion of TNF-α by DCs in response to E. coli", "setting": "[2]; 3 hours phagocytosis reaction, protein added alone", "value": "did not induce the secretion of TNF-α"},
      {"measurement": "TLR4-MD2 protein-induced TNF-α release against E. coli", "setting": "[2]; SP-A and TLR4-MD2 added together, 3 hours with E. coli", "value": "reduces"}
    ]}
  ]
}
